Legend:
MDA-MB-468 = assay: NCI-60 single dose screen, sulforhodamine B; format: cell-based, human; conditions: Breast cancer MDA-MB-468; single dose 10^−5 M
Method: (§1) In this research, all of the newly synthesised quinazolinones were subjected to in vitro anticancer screening by the National Cancer Institute (USA) against 60 different human cell lines including leukaemia, non-small cell lung cancer, colon cancer, CNS cancer, melanoma, ovarian cancer, renal cancer, prostate cancer, and breast cancer. The tested compounds were evaluated at a single dose (10^−5 M). […] Regarding the benzenesulfonamide counterparts, the introduction of an electron-withdrawing group on the benzenesulfonamide moiety increased the inhibitory activity on the glioblastoma cell line SNB-75 as depicted by the chloro derivative 5c (GI% = 63.09) which was higher than that of the unsubstituted derivative 5a (GI% = 40.06) and the methyl derivative 5b (GI% = 33.03).
(§2) 1. Cytotoxicity screening against a panel of 60 human tumor cell lines
(§3) All the compounds were selected for NCI-60 Human Tumor Cell Lines Screen by the Developmental Therapeutics Program (DTP) at the National Cancer Institute (NCI), Maryland, USA. The operation of this screen utilizes 60 different human tumor cell lines, representing leukemia, non-small-cell lung cancer, colon cancer, CNS cancer, melanoma, ovarian cancer, renal cancer, prostate cancer and breas t cancer.
(§4) The compounds were supplied as dry powder and a single concentration is tested in all 60 cell lines at a single dose of 10 µM solution in dimethyl sulfoxide (DMSO) using Sulforhodamine B assay. Briefly, cells are seeded in 96 well plates at an appropriate density and incubated for 1 day. After 1 day, some of the plates are processed to determine the density time zero. To the remaining plates, compounds are added at 10 µM concentration. Plates are incubated a further 2 days, then fixed and staine d with sulphorhodamine B. Growth inhibition is calculated relative to cells without drug treatment and the time zero control. The use of a time zero control allows the determination of cell kill as well as net growth inhibition.
(§5) 2. Detection of IC50 against MDA-MB-435, SNB-75 cell lines and normal cell line WI -38.
(§6) Antiproliferative activities of 5c in melanoma cell line MDA-MB-435, glioblastoma cell line SNB-75 and normal cell line WI -38 and that of 8a in melanoma cell line MDA-MB-435 and normal cell line WI-38 were measured spectrophotometrically using in vitro MTT based toxicology assay kit (catalog no. M -5655, M-8910) (Sigma Aldrich), according to the manufacturer’s protocol. The three examined cell lin es were obtained from American Type Culture Collection (ATCC). Briefly, cells were platted (cells density 1.2 – 1.8 × 10,000 cells/well) in a volume of 100 µl complete growth medium + 100 μl of the tested compound per well in a 96-well plate for 48 h before the MTT assay. The cultures were removed from incubator into laminar flow hood then each vial of MTT [M-5655] should be reconstituted with 3 ml of medium or balanced salt solution without phenol red and serum. Reconstituted MTT was added in an amount equal to […]

HL-60(TB) = assay: NCI-60 single dose screen, sulforhodamine B; format: cell-based, human; conditions: Leukaemia HL-60(TB); single dose 10^−5 M
Method: as §1, §2, §3, §4, §5, §6

IGROV1 = assay: NCI-60 single dose screen, sulforhodamine B; format: cell-based, human; conditions: Ovarian cancer IGROV1; single dose 10^−5 M
Method: as §1, §2, §3, §4, §5, §6

MCF7 = assay: NCI-60 single dose screen, sulforhodamine B; format: cell-based, human; conditions: Breast cancer MCF7; single dose 10^−5 M
Method: as §1, §2, §3, §4, §5, §6

HOP-62 = assay: NCI-60 single dose screen, sulforhodamine B; format: cell-based, human; conditions: Non-small cell lung cancer HOP-62; single dose 10^−5 M
Method: as §1, §2, §3
as §4, with “inhibition. […]” for “inhibition.”

HCT-15 = assay: NCI-60 single dose screen, sulforhodamine B; format: cell-based, human; conditions: Colon cancer HCT-15; single dose 10^−5 M
Method: as §1, §2, §3
as §4, with “inhibition. […]” for “inhibition.”

SK-MEL-28 = assay: NCI-60 single dose screen, sulforhodamine B; format: cell-based, human; conditions: Melanoma SK-MEL-28; single dose 10^−5 M
Method: as §1, §2, §3
as §4, with “inhibition. […]” for “inhibition.”

SK-MEL-2 = assay: NCI-60 single dose screen, sulforhodamine B; format: cell-based, human; conditions: Melanoma SK-MEL-2; single dose 10^−5 M
Method: as §1, §2, §3
as §4, with “inhibition. […]” for “inhibition.”

SF-268 = assay: NCI-60 single dose screen, sulforhodamine B; format: cell-based, human; conditions: CNS cancer SF-268; single dose 10^−5 M
Method: as §1, §2, §3
as §4, with “inhibition. […]” for “inhibition.”

NCI-H23 = assay: NCI-60 single dose screen, sulforhodamine B; format: cell-based, human; conditions: Non-small cell lung cancer NCI-H23; single dose 10^−5 M
Method: as §1, §2, §3
as §4, with “inhibition. […]” for “inhibition.”

HCT-116 = assay: NCI-60 single dose screen, sulforhodamine B; format: cell-based, human; conditions: Colon cancer HCT-116; single dose 10^−5 M
Method: as §1, §2, §3
as §4, with “inhibition. […]” for “inhibition.”

OVCAR-8 = assay: NCI-60 single dose screen, sulforhodamine B; format: cell-based, human; conditions: Ovarian cancer OVCAR-8; single dose 10^−5 M
Method: as §1, §2, §3
as §4, with “inhibition. […]” for “inhibition.”

MOLT-4 = assay: NCI-60 single dose screen, sulforhodamine B; format: cell-based, human; conditions: Leukaemia MOLT-4; single dose 10^−5 M
Method: as §1, §2, §3
as §4, with “inhibition. […]” for “inhibition.”

DU-145 = assay: NCI-60 single dose screen, sulforhodamine B; format: cell-based, human; conditions: Prostate cancer DU-145; single dose 10^−5 M
Method: as §1, §2, §3
as §4, with “inhibition. […]” for “inhibition.”

UO-31 = assay: NCI-60 single dose screen, sulforhodamine B; format: cell-based, human; conditions: Renal cancer UO-31; single dose 10^−5 M
Method: as §1, §2, §3
as §4, with “inhibition. […]” for “inhibition.”

OVCAR-4 = assay: NCI-60 single dose screen, sulforhodamine B; format: cell-based, human; conditions: Ovarian cancer OVCAR-4; single dose 10^−5 M
Method: as §1, §2, §3
as §4, with “inhibition. […]” for “inhibition.”

SF-539 = assay: NCI-60 single dose screen, sulforhodamine B; format: cell-based, human; conditions: CNS cancer SF-539; single dose 10^−5 M
Method: as §1, §2, §3
as §4, with “inhibition. […]” for “inhibition.”

RPMI-8226 = assay: NCI-60 single dose screen, sulforhodamine B; format: cell-based, human; conditions: Leukaemia RPMI-8226; single dose 10^−5 M
Method: as §1, §2, §3
as §4, with “inhibition. […]” for “inhibition.”

T-47D = assay: NCI-60 single dose screen, sulforhodamine B; format: cell-based, human; conditions: Breast cancer T-47D; single dose 10^−5 M
Method: as §1, §2, §3
as §4, with “inhibition. […]” for “inhibition.”

TK-10 = assay: NCI-60 single dose screen, sulforhodamine B; format: cell-based, human; conditions: Renal cancer TK-10; single dose 10^−5 M
Method: as §1, §2, §3
as §4, with “inhibition. […]” for “inhibition.”

OVCAR-5 = assay: NCI-60 single dose screen, sulforhodamine B; format: cell-based, human; conditions: Ovarian cancer OVCAR-5; single dose 10^−5 M
Method: as §1, §2, §3
as §4, with “inhibition. […]” for “inhibition.”

SK-MEL-5 = assay: NCI-60 single dose screen, sulforhodamine B; format: cell-based, human; conditions: Melanoma SK-MEL-5; single dose 10^−5 M
Method: as §1, §2, §3
as §4, with “inhibition. […]” for “inhibition.”

Compound | GI% at 10^−5 M (MDA-MB-468) | GI% at 10^−5 M (HL-60(TB)) | GI% at 10^−5 M (IGROV1) [%] | GI% at 10^−5 M (MCF7) [%] | melting point [°C] | GI% at 10^−5 M (HOP-62) [%] | GI% at 10^−5 M (HCT-15) | GI% at 10^−5 M (SK-MEL-28) | GI% at 10^−5 M (SK-MEL-2) | GI% at 10^−5 M (SF-268) | GI% at 10^−5 M (NCI-H23) | GI% at 10^−5 M (HCT-116) | GI% at 10^−5 M (OVCAR-8) | GI% at 10^−5 M (MOLT-4) | GI% at 10^−5 M (DU-145) | GI% at 10^−5 M (OVCAR-4) | GI% at 10^−5 M (SF-539) | GI% at 10^−5 M (RPMI-8226) | GI% at 10^−5 M (T-47D) | GI% at 10^−5 M (TK-10) | other results
O=C(CNn1c(COc2ccccc2)nc2ccccc2c1=O)Nc1ccccc1 [Compound 4a, 2-((4-oxo-2-(phenoxymethyl)quinazolin-3(4H)-yl)amino)-N-phenylacetamide] | – (– means GI < 10%) | – (– means GI < 10%) | 19.54 | 15.7 | 135 to 137 | 13.59 | – (– means GI < 10%) | – (– means GI < 10%) | – (– means GI < 10%) | – (– means GI < 10%) | 16.55% | – (– means GI < 10%) | – (– means GI < 10%) | – (– means GI < 10%) | – (– means GI < 10%) | – (– means GI < 10%) | – (– means GI < 10%) | – (– means GI < 10%) | – (– means GI < 10%) | – (– means GI < 10%) | GI% at 10^−5 M (UO-31): 21.57%; GI% at 10^−5 M (OVCAR-5): – (– means GI < 10%); GI% at 10^−5 M (SK-MEL-5): – (– means GI < 10%)
COc1ccc(NC(=O)CNn2c(COc3ccccc3)nc3ccccc3c2=O)cc1 [Compound 4b, N-(4-methoxyphenyl)-2-((4-oxo-2-(phenoxymethyl)quinazolin-3(4H)-yl)amino)acetamide] | – (– means GI < 10%) | – (– means GI < 10%) | 6.78 | 13.20 | 146 to 148 | 12.71 | – (– means GI < 10%) | – (– means GI < 10%) | – (– means GI < 10%) | – (– means GI < 10%) | – (– means GI < 10%) | – (– means GI < 10%) | – (– means GI < 10%) | – (– means GI < 10%) | – (– means GI < 10%) | – (– means GI < 10%) | – (– means GI < 10%) | – (– means GI < 10%) | – (– means GI < 10%) | – (– means GI < 10%) | GI% at 10^−5 M (UO-31): 15.77%; GI% at 10^−5 M (OVCAR-5): – (– means GI < 10%); GI% at 10^−5 M (SK-MEL-5): – (– means GI < 10%)
O=C(CNn1c(COc2ccccc2)nc2ccccc2c1=O)Nc1ccc(Cl)cc1 [Compound 4c, N-(4-chlorophenyl)-2-((4-oxo-2-(phenoxymethyl)quinazolin-3(4H)-yl)amino)acetamide] | 11.13% | – (– means GI < 10%) | 19.62 | 10.05 | 165 to 167 | 12.12 | – (– means GI < 10%) | – (– means GI < 10%) | – (– means GI < 10%) | – (– means GI < 10%) | – (– means GI < 10%) | – (– means GI < 10%) | – (– means GI < 10%) | 15.9% | – (– means GI < 10%) | 11.8% | – (– means GI < 10%) | – (– means GI < 10%) | 29.33% | – (– means GI < 10%) | GI% at 10^−5 M (OVCAR-5): – (– means GI < 10%); GI% at 10^−5 M (SK-MEL-5): – (– means GI < 10%)
O=c1c2ccccc2nc(COc2ccccc2)n1NS(=O)(=O)c1ccccc1 [Compound 5a, N-(4-oxo-2-(phenoxymethyl)quinazolin-3(4H)-yl)benzenesulfonamide] | – (– means GI < 10%) | – (– means GI < 10%) | 16.06 | 14.31 | 114 to 116 | 16.59 | – (– means GI < 10%) | – (– means GI < 10%) | – (– means GI < 10%) | – (– means GI < 10%) | 11.73% | – (– means GI < 10%) | – (– means GI < 10%) | – (– means GI < 10%) | – (– means GI < 10%) | – (– means GI < 10%) | – (– means GI < 10%) | – (– means GI < 10%) | – (– means GI < 10%) | – (– means GI < 10%) | GI% at 10^−5 M (UO-31): 18.13%; GI% at 10^−5 M (OVCAR-5): – (– means GI < 10%); GI% at 10^−5 M (SK-MEL-5): – (– means GI < 10%)
Cc1ccc(S(=O)(=O)Nn2c(COc3ccccc3)nc3ccccc3c2=O)cc1 [Compound 5b, 4-methyl-N-(4-oxo-2-(phenoxymethyl)quinazolin-3(4H)-yl)benzenesulfonamide] | – (– means GI < 10%) | – (– means GI < 10%) | 21.58 | 11.54 | 140 to 142 | 11.16 | – (– means GI < 10%) | – (– means GI < 10%) | – (– means GI < 10%) | – (– means GI < 10%) | 11.47% | – (– means GI < 10%) | – (– means GI < 10%) | – (– means GI < 10%) | 15.73% | – (– means GI < 10%) | – (– means GI < 10%) | – (– means GI < 10%) | – (– means GI < 10%) | 23.64% | GI% at 10^−5 M (UO-31): 10.74%; GI% at 10^−5 M (OVCAR-5): – (– means GI < 10%); GI% at 10^−5 M (SK-MEL-5): – (– means GI < 10%)
